Measured values reported in the NIST ThermoML archive (doi:10.1021/je050003x).

Assay: cn = amount concentration of the nth substance listed, in mol/dm3
Settings: 101.3 kPa, Liquid, Open capillary

[Cl-].[Cl-].[Cl-].[Cr+3] [chromium chloride] + O
binary diffusion coefficient [m2/s]
Settings | c1 = 0.005 | c1 = 0.008 | c1 = 0.01 | c1 = 0.02 | c1 = 0.03 | c1 = 0.05
298.15 K | 1.33e-09 | 1.2e-09 | 1.17e-09 | 1.1e-09 | 1.06e-09 | 1.03e-09
303.15 K | 1.85e-09 | 1.33e-09 | 1.31e-09 | 1.26e-09 | 1.2e-09 | 1.17e-09
